This is an account of results in ChEMBL document CHEMBL3779854, “Biological evaluation and molecular docking studies of new curcuminoid derivatives: Synthesis and characterization” (Bioorg Med Chem Lett, 2016).

One data set has as its system Klebsiella pneumoniae. In words: Antibacterial activity against Klebsiella pneumoniae ATCC 13883 at 50 ug after 24 hrs by well diffusion method. In kind it is functional, organism-based. A general note: In agar diffusion tests the substance spreads into inoculated agar from a disc or well.
The next data set has as its system Pseudomonas aeruginosa. Description: Antibacterial activity against Pseudomonas aeruginosa ATCC 27853 at 50 ug after 24 hrs by well diffusion method. Format: functional. The following applies: for zone of inhibition at 50 µg/disc: ATCC 27853, 24 h, read-out: IZ.
Data set [1] is described as follows: Antiinflammatory activity assessed as inhibition of albumin denaturation after 15 mins by BSA assay. In kind it is functional.
Data set [2] concerns Escherichia coli. Description: Antibacterial activity against Escherichia coli ATCC 25922 at 10 ug after 24 hrs by well diffusion method. Format: functional, organism-based.
The subject of data set [3] is Staphylococcus aureus. Description: Antibacterial activity against Staphylococcus aureus ATCC 25923 at 10 ug after 24 hrs by well diffusion method. Format: functional, organism-based.
Data set [4] in a line: Antioxidant activity assessed as DPPH free radical scavenging activity by UV-visible spectrophotometric analysis. In kind it is physicochemical.
A short description of data set [5]: Antioxidant activity assessed as H2O2 scavenging activity. Format: physicochemical.
Data set [6] relates to Escherichia coli. In words: Antibacterial activity against Escherichia coli ATCC 25922 at 50 ug after 24 hrs by well diffusion method. In kind it is functional, organism-based.
The test system of data set [7] is Staphylococcus aureus. Description: Antibacterial activity against Staphylococcus aureus ATCC 25923 at 50 ug after 24 hrs by well diffusion method. In kind it is functional, organism-based.

≈ marks a conversion by molar mass, not a printed value. Calls of active or inactive are those of the source. No cut-off for these calls is given here.

For orientation: IC50 means the point on the concentration scale where inhibition reaches its midpoint.

As for `CN(C)c1ccc(/C=C/c2cc(/C=C/c3ccc(N(C)C)cc3)[nH]n2)cc1`, the outcome in the data set on Klebsiella pneumoniae, in the data set on Pseudomonas aeruginosa and with Escherichia coli [2] was Active. For the same molecule, the half-inhibitory concentration (IC50) amounted to 51.79 µg/mL (≈ 144 µM) in data set [1], 46.05 µg/mL (≈ 128 µM) in [4] and 50.78 µg/mL (≈ 142 µM) in data set [5]. Also, the result in the data set on Staphylococcus aureus [3] was inactive.

For `CN(C)c1ccc(/C=C/c2cc(/C=C/c3ccc(N(C)C)cc3)n(-c3ccc(F)cc3)n2)cc1`, the result with Escherichia coli [6], in the data set with Klebsiella pneumoniae, in the data set with Staphylococcus aureus [7] and in the data set with Escherichia coli [2] was Active. In addition, the IC50 in data set [1] was 216.32 µg/mL (≈ 478 µM); in data set [4], 74.38 µg/mL (≈ 164 µM); in [5] it was 89.05 µg/mL (≈ 197 µM).

Consider `CN(C)c1ccc(/C=C/C(=O)/C(CNc2ccc(F)cc2)=C(O)/C=C/c2ccc(N(C)C)cc2)cc1`, for which the result with Escherichia coli [6], with Klebsiella pneumoniae and in the data set on Escherichia coli [2] was Active. Also, the zone of inhibition at 50 µg/disc in the data set on Pseudomonas aeruginosa was found to be 12 mm. Further, the IC50 worked out at 226.71 µg/mL (≈ 467 µM) in data set [1], 48.16 µg/mL (≈ 99.2 µM) in data set [4] and 46.9 µg/mL (≈ 96.6 µM) in [5]. Further, the result in the data set on Staphylococcus aureus [3] was inactive.

Consider `COc1ccc(-n2nc(/C=C/c3ccc(N(C)C)cc3)cc2/C=C/c2ccc(N(C)C)cc2)cc1`, for which the IC50 was 751.12 µg/mL (≈ 1620 µM) in data set [1], 88.05 µg/mL (≈ 190 µM) in [4] and 79.59 µg/mL (≈ 171 µM) in data set [5]. Besides, in the data set with Escherichia coli [2], the result was Active. For the same molecule, the result with Staphylococcus aureus [3] was inactive.

For the molecule `CN(C)c1ccc(/C=C/C(=O)/C(CNc2cccc(C(F)(F)F)c2)=C(O)/C=C/c2ccc(N(C)C)cc2)cc1`, the values for the IC50 in data set [1], in data set [4] and in data set [5] were 186.05 µg/mL (≈ 347 µM), 81.69 µg/mL (≈ 153 µM) and 74.6 µg/mL (≈ 139 µM), respectively. For the same molecule, the outcome with Escherichia coli [2] and in the data set on Staphylococcus aureus [3] was inactive.

As for `COc1cc(C=C(C(=O)/C=C/c2ccc(N(C)C)cc2)C(=O)/C=C/c2ccc(N(C)C)cc2)ccc1O`, the outcome with Escherichia coli [6], in the data set on Pseudomonas aeruginosa and with Escherichia coli [2] was Active. In addition, the IC50 was 106.16 µg/mL (≈ 214 µM) in data set [1], 75.37 µg/mL (≈ 152 µM) in [4] and 44.95 µg/mL (≈ 90.5 µM) in data set [5].

For the molecule `CN(C)c1ccc(/C=C/C(=O)/C(CNc2ccccc2)=C(O)/C=C/c2ccc(N(C)C)cc2)cc1`, the 50% inhibitory concentration (IC50) in data set [1] was 808.36 µg/mL (≈ 1730 µM); in data set [4] it was 79.06 µg/mL (≈ 169 µM); in data set [5], 52.13 µg/mL (≈ 111 µM). For the same molecule, the outcome in the data set on Staphylococcus aureus [7], with Escherichia coli [2] and in the data set with Staphylococcus aureus [3] was Active.

As to `CN(C)c1ccc(/C=C/C(=O)/C=C(O)/C=C/c2ccc(N(C)C)cc2)cc1`, the concentration for half-maximal inhibition (IC50) in data set [1] is 180.38 µg/mL (≈ 498 µM); in [4], 78.52 µg/mL (≈ 217 µM); in data set [5], 74.56 µg/mL (≈ 206 µM).

With `COc1ccccc1NC/C(C(=O)/C=C/c1ccc(N(C)C)cc1)=C(O)\C=C\c1ccc(N(C)C)cc1`, the IC50 was found to be 81.36 µg/mL (≈ 163 µM) in data set [1], 76.28 µg/mL (≈ 153 µM) in data set [4] and 53.94 µg/mL (≈ 108 µM) in data set [5]. Further, the outcome in the data set on Staphylococcus aureus [7] and with Escherichia coli [2] was Active.

Consider `O=C([O-])Cc1ccccc1Nc1c(Cl)cccc1Cl.[Na+]` [DICLOFENAC SODIUM], for which, in data set [1], the IC50 is 52.95 µg/mL.

On to `O=C1O[C@H]([C@@H](O)CO)C(O)=C1O` [ASCORBIC ACID], for which the IC50 in [4] worked out at 65.53 µg/mL (≈ 372 µM); in data set [5], 68.82 µg/mL (≈ 391 µM).

Take `COc1cc(/C=C/C(=O)CC(=O)/C=C/c2ccc(O)c(OC)c2)ccc1O` [CURCUMIN]: the result with Escherichia coli [6], in the data set on Klebsiella pneumoniae, with Staphylococcus aureus [7], with Escherichia coli [2] and in the data set with Staphylococcus aureus [3] was Active. Also, the zone of inhibition at 50 µg/disc in the data set with Pseudomonas aeruginosa worked out at 11 mm. Moreover, the IC50 is 129.85 µg/mL (≈ 352 µM) in data set [1], 52.51 µg/mL (≈ 143 µM) in [4] and 52.24 µg/mL (≈ 142 µM) in [5].

As to `CN(C)c1ccc(/C=C/c2cc(/C=C/c3ccc(N(C)C)cc3)n(-c3ccccc3)n2)cc1`, the result with Escherichia coli [6], in the data set with Staphylococcus aureus [7], in the data set with Escherichia coli [2] and with Staphylococcus aureus [3] was Active. Also, the IC50 in data set [1] was determined as 29.44 µg/mL (≈ 67.7 µM); in data set [4], 74.03 µg/mL (≈ 170 µM); in [5], 72.42 µg/mL (≈ 167 µM).
